Like-named read-outs stand apart in the source and are kept apart here.
Format: in vivo, male Swiss albino mice
Conditions: for Analgesic action, inhibition action on phenylquinone writhing: dose giving 50 % inhibition / Analgesic action, inhibition action on phenylquinone writhing, % inhibition: subcutaneous; for Analgesic action, inhibition action on phenylquinone writhing: dose giving 50 % inhibition: 30 min before phenyl-p-benzoquinone, dose with 50 % inhibition; for Analgesic (agonist) activity, in words: phenylquinone writhing, mice; for % Inhibn, control (single agent) in antagonist study: alone
Description: The percent change is calculated according to the following equation: % change=100- (no. of writhes in treated group/no. of writhes in control group)×100.

[1] = at the dose listed for the substance under E1

| Structure (SMILES) | Analgesic action, inhibition action on phenylquinone writhing: dose giving 50 % inhibition [mg/kg] | Analgesic action, inhibition action on phenylquinone writhing, % inhibition [1] [%] | Analgesic (agonist) activity, in words | other results |
| --- | --- | --- | --- | --- |
| CN1CCCCC1=NS(C)(=O)=O [Compound W-1, 1-Methylpiperidylidene-2-methanesulfonamide] | 108.0 | 50 | – | – |
| O=S(=O)(N=C1CCCCN1CC1CC1)c1cccnc1 [Compound W-22, 1-Cyclopropylmethylpiperidylidene-2-(3-pyridyl)sulfonamide] | 2.0 | – | – | Analgesic action, inhibition action on phenylquinone writhing, % inhibition (dose 2.0 mg/kg (Table 3)): 50% |
| Nc1ccc(S(=O)(=O)N=C2CCCCN2CC2CCC2)cc1 [Compound W-24, 1-Cyclobutylmethylpiperidylidene-2-(4-aminophenyl)sulfonamide] | – | – | – | Analgesic action, inhibition action on phenylquinone writhing, % inhibition (dose 0.20 mg/kg): 61% |
| CC(=O)Oc1ccccc1C(=O)O [Aspirin (TM), reference compound] | 50.0 | 50 | – | – |
| CN1CCCCC1=NS(=O)(=O)c1ccccc1[N+](=O)[O-] [Compound W-8, 1-Methylpiperidylidene-2-(2-nitrophenyl)sulfonamide] | 0.0018 | 50 | active analgesics, being comparable to morphine sulfate | – |
| O=S(=O)(N=C1CCCCN1CC1CCC1)c1cccnc1 [Compound W-25, 1-Cyclobutylmethylpiperidylidene-2-(3-pyridyl)sulfonamide] | – | – | – | Analgesic action, inhibition action on phenylquinone writhing, % inhibition (dose 0.20 mg/kg): 69% |
| CCC(=O)O[C@](Cc1ccccc1)(c1ccccc1)[C@H](C)CN(C)C [Dextropropoxyphene (TM), reference compound] | 56.0 | 50 | – | – |
| CN1CCCCC1=NS(=O)(=O)c1ccccc1 [Compound W-2, 1-Methylpiperidylidene-2-benzenesulfonamide] | 68.0 | 50 | – | – |
| CN1CCCC(Br)C1=NC#N (racemic) [Compound 0-1, 3-Bromo-1-methylpiperidylidene-2-cyanamide] | 0.7 | 50 | – | – |
| Nc1ccc(CCN2CCCCC2=NS(=O)(=O)c2ccc(Cl)cc2)cc1 [Compound W-19, 1-(4-Aminophenylethyl)piperidylidene-2-(4-chlorophenyl)sulfonamide] | – | 50 | – | – |
| COc1ccc(S(=O)(=O)N=C2CCCCN2C)cc1 [Compound W-4, 1-Methylpiperidylidene-2-(4-methoxyphenyl)sulfonamide] | 0.002 | 50 | active analgesics, being comparable to morphine sulfate | – |
| C/C=C/N1CCCCC1=NS(=O)(=O)c1ccc(Cl)cc1 [Compound W-32, E-1-(1-Propenyl)piperidylidene-2-(4-chlorophenyl)sulfonamide] | 0.013 | 50 | – | – |
| CN1CCCCC1=NS(=O)(=O)c1cccc(N)c1 [Compound W-10, 1-Methylpiperidylidene-2-(3-aminophenyl)sulfonamide] | 0.0017 | 50 | active analgesics, being comparable to morphine sulfate | – |
| CN1CCCCC1=NS(=O)(=O)c1ccc(Cl)cc1 [Compound W-3, 1-Methylpiperidylidene-2-(4-chlorophenyl)sulfonamide] | 0.0038 | 50 | active analgesics, being comparable to morphine sulfate | % Inhibn, control (single agent) in antagonist study (2.0 mg/kg sc): 97%; % Inhibn, control (single agent) in antagonist study (5.0 mg/kg sc): 100% |
| CC(=O)Nc1ccc(S(=O)(=O)N=C2CCCCN2C)cc1 [Compound W-12, 1-Methylpiperidylidene-2-(4-acetamidophenyl)sulfonamide] | 1.2 | 50 | – | – |
| O=S(=O)(N=C1CCCCN1CC1CCC1)c1ccc(Cl)cc1 [Compound W-23, 1-Cyclobutylmethylpiperidylidene-2-(4-chlorophenyl)sulfonamide] | 0.01 | 50 | – | – |
| CN1CCCCC1=NS(=O)(=O)c1cccc([N+](=O)[O-])c1 [Compound W-7, 1-Methylpiperidylidene-2-(3-nitrophenyl)sulfonamide] | 0.0028 | 50 | active analgesics, being comparable to morphine sulfate | – |

| Structure (SMILES) | Analgesic action, inhibition action on phenylquinone writhing: dose giving 50 % inhibition [mg/kg] | Analgesic action, inhibition action on phenylquinone writhing, % inhibition [1] [%] | Analgesic (agonist) activity, in words | other results |
| --- | --- | --- | --- | --- |
| CC(C)CN1CCCCC1=NS(=O)(=O)c1cccnc1 [Compound W-31, 1-Isobutylpiperidylidene-2-(3-pyridyl)sulfonamide] | – | – | – | Analgesic action, inhibition action on phenylquinone writhing, % inhibition (dose 2.0 mg/kg (Table 3)): 65% |
| CCCN1CCCCC1=NS(=O)(=O)c1ccc(Cl)cc1 [Compound W-26, 1-n-Propylpiperidylidene-2-(4-chlorophenyl)sulfonamide] | 1.4 | 50 | – | – |
| Nc1ccc(S(=O)(=O)N=C2CCCCN2CCc2ccccc2)cc1 [Compound W-16, 1-Phenylethylpiperidylidene-2-(4-aminophenyl)sulfonamide] | – | – | active analgesics, being comparable to morphine sulfate | Analgesic action, inhibition action on phenylquinone writhing, % inhibition (dose 0.20 mg/kg): 56% |
| CN1CCCCC1=NS(=O)(=O)c1ccc(N)cc1 [Compound W-9, 1-Methylpiperidylidene-2-(4-aminophenyl)sulfonamide] | 0.007 | 50 | active analgesics, being comparable to morphine sulfate | – |
| Cc1ccc(S(=O)(=O)N=C2CCCCN2C)cc1 [Compound W-5, 1-Methylpiperidylidene-2-(4-methylphenyl)sulfonamide] | 2.4 | 50 | – | – |
| O=S(=O)(N=C1CCCCN1CCc1ccccc1)c1ccc(Cl)cc1 [Compound W-15, 1-Phenylethylpiperidylidene-2-(4-chlorophenyl)sulfonamide] | 0.007 | 50 | active analgesics, being comparable to morphine sulfate | – |
| CN1CCCCC1=NS(=O)(=O)c1cccnc1 [Compound W-14, 1-Methylpiperidylidene-2-(3-pyridyl)sulfonamide] | 0.00038 | 50 | active analgesics, being comparable to morphine sulfate | – |
| CCCN1CCCCC1=NS(=O)(=O)c1cccnc1 [Compound W-28, 1-n-Propylpiperidylidene-2-(3-pyridyl)sulfonamide] | – | – | – | Analgesic action, inhibition action on phenylquinone writhing, % inhibition (dose 2.0 mg/kg (Table 3)): 82% |
| CC(C)CN1CCCCC1=NS(=O)(=O)c1ccc(N)cc1 [Compound W-30, 1-Isobutylpiperidylidene-2-(4-aminophenyl)sulfonamide] | – | – | – | Analgesic action, inhibition action on phenylquinone writhing, % inhibition (dose 2.0 mg/kg (Table 3)): 59% |
| O=S(=O)(N=C1CCCCN1CCc1ccccc1)c1cccnc1 [Compound W-17, 1-Phenylethylpiperidylidene-2-(3-pyridyl)sulfonamide] | – | – | active analgesics, being comparable to morphine sulfate | Analgesic action, inhibition action on phenylquinone writhing, % inhibition (dose 0.20 mg/kg): 65% |
| CC(C)CN1CCCCC1=NS(=O)(=O)c1ccc(Cl)cc1 [Compound W-29, 1-Isobutylpiperidylidene-2-(4-chlorophenyl)sulfonamide] | 2.0 | – | – | Analgesic action, inhibition action on phenylquinone writhing, % inhibition (dose 2.0 mg/kg (Table 3)): 50% |
| CN1CCCCC1=NS(=O)(=O)c1ccc([N+](=O)[O-])cc1 [Compound W-6, 1-Methylpiperidylidene-2-(4-nitrophenyl)sulfonamide] | 0.0028 | 50 | active analgesics, being comparable to morphine sulfate | – |
| CN1CCCCC1=NS(=O)(=O)c1ccccc1N [Compound W-11, 1-Methylpiperidylidene-2-(2-aminophenyl)sulfonamide] | 0.00024 | 50 | active analgesics, being comparable to morphine sulfate | – |
| CN1CCCCC1=NC#N [Compound W-13, 1-Methylpiperidylidene-2-cyanamide] | 6.0 | 50 | – | – |
| Nc1ccc(S(=O)(=O)N=C2CCCCN2CC2CC2)cc1 [Compound W-21, 1-Cyclopropylmethylpiperidylidene-2-(4-aminophenyl)sulfonamide] | – | – | – | Analgesic action, inhibition action on phenylquinone writhing, % inhibition (dose 2.0 mg/kg (Table 3)): 49% |
| CCCN1CCCCC1=NS(=O)(=O)c1ccc(N)cc1 [Compound W-27, 1-n-Propylpiperidylidene-2-(4-aminophenyl)sulfonamide] | – | – | – | Analgesic action, inhibition action on phenylquinone writhing, % inhibition (dose 2.0 mg/kg (Table 3)): 59% |
| O=[N+]([O-])c1ccc(CCN2CCCCC2=NS(=O)(=O)c2ccc(Cl)cc2)cc1 [Compound W-18, 1-(4-Nitrophenylethyl)piperidylidene-2-(4-chlorophenyl)sulfonamide] | – | 50 | – | – |

Source: patent US4468403A, “Analgesic substituted piperidylidene-2-sulfon(cyan)amide derivatives” (priority 1982, dated 1984)
